What all share (test): DTP human tumour cell line panel, 48 h
Experiment [1] has as its system UACC-62.
Experiment [2] relates to NCI-H522.
In experiment [3] the test system is TK-10.
Experiment [4] has as its system SN12C.
Experiment [5] concerns HL-60.
Experiment [6] concerns NCI/ADR-RES.
Experiment [7] has as its system M14.
Experiment [8] concerns UO-31.
Experiment [9] concerns LOX IMVI.
The subject of experiment [10] is 786-0.
Experiment [11] has as its system Malme-3M.
In experiment [12] the test system is NCI-H23.
The subject of experiment [13] is HOP-62.
Experiment [14] has as its system UACC-257.
Experiment [15] deals with CAKI-1.
Experiment [16] deals with A549.
Experiment [17] deals with K562.
The test system of experiment [18] is RPMI-8226.
The subject of experiment [19] is ACHN.
Experiment [20] relates to IGROV-1.

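Cultured in 96-well plates, cells were exposed to test compound for 48 hours across five concentrations. GI50 = concentration required for 50% inhibition of growth.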 The source made the active and inactive calls. No stated cut-off is given here; in the data, active = GI50 up to about 1.1 µM and inactive = higher.

For orientation: GI50 means the concentration that inhibits growth by half.

In the case of `COc1cc(/C=C2/SC(c3ccccc3)N(c3cccc(Cl)c3)C2=O)cc(OC)c1OC` (stereo not drawn), the GI50 in experiment [1] was 18.4 µM (inactive); in experiment [2] it was 11.5 µM (inactive); in [3], 33.7 µM (inactive); in experiment [4], 17.5 µM (inactive); in [5], 29.8 µM (inactive); in [6], 17.1 µM (inactive). In addition, the GI50 in experiment [7] was 19.8 µM (inactive); in [8], 24.8 µM (inactive); in experiment [9], 12.1 µM (inactive); in experiment [10] it was 16.8 µM (inactive); in experiment [11], 24.6 µM (inactive); in experiment [12], 22.9 µM (inactive). Further, the GI50 in experiment [13] is 39.8 µM (inactive); in experiment [14], 40.1 µM (inactive); in experiment [15], 35.9 µM (inactive); in experiment [16], 54.5 µM (inactive); in [17], 13.5 µM (inactive); in experiment [18], 16.2 µM (inactive). In addition, the GI50 in [19] is 19.3 µM (inactive).
Turning to `CC(=O)NC1C(OCc2ccccc2)OC(CO)C(O)C1OCC(=O)NC(C)C(=O)NC(CCC(=O)NCCCCCNc1c2ccccc2nc2cccc([N+](=O)[O-])c12)C(N)=O` (stereo not drawn), the 50% growth inhibitory concentration (GI50) was < 0.0001 µM (active) in [2]; 0.023 µM (active) in [3]; < 0.0001 µM (active) in experiment [4]; < 0.0001 µM (active) in [5]; 0.000327 µM (active) in experiment [6]; < 0.0001 µM (active) in [7]. Further, the 50% growth inhibitory concentration (GI50) in experiment [8] is < 0.01 µM (active); in experiment [9], 0.00169 µM (active); in experiment [10], < 0.0001 µM (active); in experiment [11] it was < 0.0001 µM (active); in experiment [12] it was < 0.0001 µM (active); in experiment [13] it was < 0.0001 µM (active). The GI50 was < 0.0001 µM (active) in experiment [14]; 0.00102 µM (active) in [20]; < 0.0001 µM (active) in experiment [15]; < 0.0001 µM (active) in experiment [16]; < 0.0001 µM (active) in [17]; < 0.0001 µM (active) in experiment [18]. Moreover, in experiment [19], the GI50 was < 0.0001 µM (active).
Regarding `Cn1c(=O)c2c(no[n+]2[O-])n(C)c1=O`, the GI50 in experiment [1] is 19.5 µM (inactive); in experiment [2], 16.1 µM (inactive); in [3] it was 18.9 µM (inactive); in [4] it was 39.3 µM (inactive); in experiment [6], 22.9 µM (inactive); in experiment [7] it was > 100 µM (inactive). Further, the GI50 in [8] is 31 µM (inactive); in experiment [9], > 100 µM (inactive); in experiment [10], 23.8 µM (inactive); in experiment [11], 18.5 µM (inactive); in experiment [12], 22.4 µM (inactive); in [13] it was 18.4 µM (inactive). The GI50 in [14] was 36.9 µM (inactive); in [20] it was 22.2 µM (inactive); in [15] it was 19.3 µM (inactive); in experiment [16], > 100 µM (inactive); in experiment [17] it was > 100 µM (inactive); in experiment [18] it was > 100 µM (inactive). Further, the GI50 in [19] is > 100 µM (inactive).
`CCCCCCCCCCCCCCCCCCNc1ccn(C2OC(COP(=O)(O)OCC3OC(n4cc(C)c(=O)[nH]c4=O)CC3O)C(O)C2O)c(=O)n1` (stereo not drawn): the GI50 in experiment [1] was 18.4 µM (inactive); in experiment [2], 15.8 µM (inactive); in experiment [3] it was 5.68 µM (inactive); in [4], 17.7 µM (inactive); in experiment [6], 15.8 µM (inactive); in experiment [7], 17 µM (inactive). In addition, the GI50 in experiment [8] is 18.5 µM (inactive); in experiment [9], 17.7 µM (inactive); in [10], 18 µM (inactive); in experiment [11] it was 16.6 µM (inactive); in experiment [12], 15.2 µM (inactive); in experiment [13] it was 16.7 µM (inactive). Also, the GI50 in experiment [14] is 18.1 µM (inactive); in [15] it was 18.4 µM (inactive); in [16] it was 17.8 µM (inactive); in experiment [17], 19.8 µM (inactive); in [18], 16.1 µM (inactive); in [19], 21.1 µM (inactive).
Consider `O=c1n(-c2ccccc2)c(=O)n2n1C1C=CC2CCCCCC1`, for which the GI50 was > 100 µM (inactive) in experiment [1]; 22.8 µM (inactive) in experiment [2]; > 100 µM (inactive) in experiment [3]; > 100 µM (inactive) in experiment [4]; 29.4 µM (inactive) in experiment [5]; > 100 µM (inactive) in [6]. The GI50 in experiment [7], in experiment [8], in experiment [9], in experiment [10], in experiment [11] and in experiment [12] was > 100 µM (inactive) each time. The GI50 in [13] is > 100 µM (inactive); in experiment [14], > 100 µM (inactive); in [20] it was > 100 µM (inactive); in experiment [15], > 100 µM (inactive); in experiment [16] it was > 100 µM (inactive); in experiment [18], 60 µM (inactive). Also, the GI50 in experiment [19] is > 100 µM (inactive).
For the molecule `CCOC(=O)c1c(SCc2ccccc2)nc2c3ccccc3ccn12`, the GI50 in experiment [1] is > 100 µM (inactive); in [2], 37.2 µM (inactive); in [4], > 100 µM (inactive); in experiment [5], > 100 µM (inactive); in [6], > 100 µM (inactive); in experiment [7] it was > 100 µM (inactive). Moreover, the GI50 in experiment [9] is > 100 µM (inactive); in experiment [10], > 100 µM (inactive); in [11], 63.7 µM (inactive); in [12], > 100 µM (inactive); in [13] it was 40.1 µM (inactive); in experiment [14], > 100 µM (inactive). Moreover, the GI50 was 38.9 µM (inactive) in experiment [20]; > 100 µM (inactive) in experiment [15]; > 100 µM (inactive) in [16]; > 100 µM (inactive) in [17]; > 100 µM (inactive) in [18]; 24 µM (inactive) in experiment [19].
Consider `Cc1ccc2c(c1C)CC1(Cc3c(ccc4c3CCC4)C1=O)C2=O` (stereo not drawn), for which the GI50 in experiment [1], in experiment [2], in experiment [3], in experiment [4], in [5] and in experiment [6] was > 100 µM (inactive) throughout. Further, the GI50 is 52.4 µM (inactive) in experiment [7]; > 100 µM (inactive) in experiment [8]; > 100 µM (inactive) in experiment [10]; > 100 µM (inactive) in experiment [11]; > 100 µM (inactive) in experiment [12]; > 100 µM (inactive) in [14]. Moreover, the GI50 in experiment [20], in experiment [15], in [16], in experiment [17], in experiment [18] and in experiment [19] was > 100 µM (inactive) each time.
Turning to `CC(C)CCCCCCCCCCCCC(=O)NCC(=O)NC1C(C)OC(Nc2ncnc3c2ncn3C)C(O)C1O` (stereo not drawn), the GI50 in experiment [1] was 3.18 µM (inactive); in experiment [2] it was 6.7 µM (inactive); in experiment [4], 3.5 µM (inactive); in experiment [5], 0.485 µM (active); in experiment [6], > 100 µM (inactive); in experiment [8], 1.9 µM (inactive). In addition, the GI50 in [9] was 5.3 µM (inactive); in [11], 2.32 µM (inactive); in experiment [12] it was 9.42 µM (inactive); in [13], 2.21 µM (inactive); in experiment [14], 19.4 µM (inactive); in experiment [20] it was 2.94 µM (inactive). The concentration for 50% growth inhibition (GI50) was 0.805 µM (active) in experiment [15], 8.28 µM (inactive) in experiment [16], > 73.3 µM (inactive) in [17] and 2.43 µM (inactive) in experiment [18].
Regarding `COC(=O)c1ccc(C)cc1C1CN=NC12Cc1c(C)cccc1C2=O` (stereo not drawn), the GI50 is 28.4 µM (inactive) in [1]; 24.2 µM (inactive) in [2]; 99.3 µM (inactive) in experiment [3]; 36 µM (inactive) in experiment [4]; 28.4 µM (inactive) in [5]; 20.3 µM (inactive) in experiment [6]. For the same molecule, the GI50 was 42.9 µM (inactive) in experiment [8]; 24.3 µM (inactive) in experiment [9]; 52.1 µM (inactive) in experiment [10]; 58.2 µM (inactive) in experiment [11]; 39.4 µM (inactive) in experiment [12]; 46.8 µM (inactive) in experiment [13]. Further, the GI50 was 49.7 µM (inactive) in experiment [14]; 46.1 µM (inactive) in experiment [20]; 50.6 µM (inactive) in [15]; 49.4 µM (inactive) in experiment [16]; 47.5 µM (inactive) in experiment [17]; 36.6 µM (inactive) in experiment [18]. Besides, in experiment [19], the GI50 was 45.4 µM (inactive).
On to `O=S(=O)(O)CCSSCCS(=O)(=O)O`, for which the GI50 in experiment [1], in experiment [2], in experiment [3], in experiment [4], in [5] and in experiment [6] was > 1000 µM (inactive) throughout. The GI50 in experiment [7], in experiment [8], in [9], in experiment [10], in experiment [11] and in experiment [12] was > 1000 µM (inactive) each time. In addition, the GI50 in experiment [13], in [14], in experiment [20], in experiment [15], in experiment [16] and in [17] was > 1000 µM (inactive) each time. Also, the GI50 in experiment [18] and in [19] was > 1000 µM (inactive) in each case.
With `Oc1cc(-c2ccc(F)cc2)nc2ncccc12`, the GI50 in experiment [1] is 33.8 µM (inactive); in experiment [2], 35.4 µM (inactive); in experiment [3], > 100 µM (inactive); in [4], > 100 µM (inactive); in [6], 32.9 µM (inactive); in [7] it was 61.5 µM (inactive). For the same molecule, the GI50 in [8] was 34.4 µM (inactive); in experiment [9] it was 45.5 µM (inactive); in [11], 65.6 µM (inactive); in [12], 63.4 µM (inactive); in experiment [13], 98.2 µM (inactive); in experiment [14], 30.5 µM (inactive). In addition, the GI50 in [20] was 67.5 µM (inactive); in experiment [15], 70.5 µM (inactive); in [16] it was 52.8 µM (inactive); in [17] it was 22.2 µM (inactive); in experiment [18] it was 37.1 µM (inactive); in experiment [19], 73.8 µM (inactive).
